Laboratory results as given in PMC2175304 (Nucleic Acids Research, 2007).

Target: Trm6p/Trm61p complex (yeast tRNA m^1A58 Mtase) (Saccharomyces cerevisiae, UniProt P46959)
Test: biochemical

Sequence of Trm6p/Trm61p complex (yeast tRNA m^1A58 Mtase) (P46959 whole entry): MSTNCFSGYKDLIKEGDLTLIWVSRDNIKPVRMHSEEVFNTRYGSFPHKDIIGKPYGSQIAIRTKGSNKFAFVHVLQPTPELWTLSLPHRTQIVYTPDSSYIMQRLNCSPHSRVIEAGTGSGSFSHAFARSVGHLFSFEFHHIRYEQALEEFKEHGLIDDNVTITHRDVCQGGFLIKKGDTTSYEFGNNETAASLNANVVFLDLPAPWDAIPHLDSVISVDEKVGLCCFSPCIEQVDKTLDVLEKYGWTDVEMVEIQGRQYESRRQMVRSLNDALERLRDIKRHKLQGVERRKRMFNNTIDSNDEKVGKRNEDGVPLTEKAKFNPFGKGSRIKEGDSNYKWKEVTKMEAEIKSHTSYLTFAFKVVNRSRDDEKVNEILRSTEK
Sequence of Trm6p/Trm61p complex (yeast tRNA m^1A58 Mtase) (P41814 whole entry partner): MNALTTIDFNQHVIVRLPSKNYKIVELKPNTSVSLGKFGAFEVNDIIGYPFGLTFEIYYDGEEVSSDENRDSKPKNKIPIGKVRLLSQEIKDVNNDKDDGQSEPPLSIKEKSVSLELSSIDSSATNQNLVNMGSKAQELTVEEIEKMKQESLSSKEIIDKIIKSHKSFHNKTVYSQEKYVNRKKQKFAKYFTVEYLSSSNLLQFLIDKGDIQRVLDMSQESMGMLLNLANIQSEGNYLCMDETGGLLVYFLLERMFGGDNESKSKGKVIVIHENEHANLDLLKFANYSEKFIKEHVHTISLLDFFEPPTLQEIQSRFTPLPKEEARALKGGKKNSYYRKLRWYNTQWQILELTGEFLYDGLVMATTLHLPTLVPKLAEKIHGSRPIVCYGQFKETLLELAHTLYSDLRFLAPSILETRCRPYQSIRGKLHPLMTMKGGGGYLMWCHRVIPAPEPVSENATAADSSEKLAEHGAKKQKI

- Kd: 376 ± 73 µM
Compound: C[S+](CC[C@H](N)C(=O)O)C[C@H]1O[C@@H](n2cnc3c(N)ncnc32)[C@H](O)[C@@H]1O (stereo partly shown) [AdoMet]
